Experimental data as given in paper PMC12525784, “Novel Azaborine-Based Inhibitors of Histone Deacetylases (HDACs)” (Molecules, 2025).

Key:
Format in all cases: biochemical
HDAC8 = target: T1, HDAC8 (Homo sapiens, UniProt Q9BY41); assay: HDAC8 enzymatic activity assay (dose-response, Boc-Lys(Tfa)-AMC); details: 10 nM HDAC8, 20 µM Boc-Lys(Tfa)-AMC; triplicate, mean ± SD
T1 construct: made in house
T1 sequence (Q9BY41 1-377): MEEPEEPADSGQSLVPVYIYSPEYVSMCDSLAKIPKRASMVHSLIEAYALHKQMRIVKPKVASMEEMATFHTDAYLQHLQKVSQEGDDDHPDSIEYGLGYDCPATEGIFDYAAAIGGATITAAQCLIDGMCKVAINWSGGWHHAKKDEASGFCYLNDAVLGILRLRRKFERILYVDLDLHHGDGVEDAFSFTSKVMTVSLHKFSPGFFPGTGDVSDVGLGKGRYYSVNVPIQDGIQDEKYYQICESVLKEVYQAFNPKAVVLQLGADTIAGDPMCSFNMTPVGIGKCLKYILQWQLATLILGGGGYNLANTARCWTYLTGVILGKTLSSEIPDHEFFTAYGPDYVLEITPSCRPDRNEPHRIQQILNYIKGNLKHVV
Protocol: (§1) Enzymatic activity assays for compound screening and dose–response analysis were performed as previously described. […] For dose–response curves, serial inhibitor dilutions were incubated with 40 nM HDAC1 (BPS Bioscience, San Diego, CA, USA), 1 nM HDAC4, or 10 nM HDAC8. […] All IC50 determinations were performed in triplicate, and the results are expressed as mean values ± standard deviation (SD). HDAC4 and HDAC8 were produced according to previously reported protocols. HDAC1 was purchased from BPS Bioscience (San Diego, CA, USA). Boc-Lys(Tfa)-AMC and trypsin were purchased from Bachem (Bubendorf, Switzerland) and AppliChem (Darmstadt, Germany), respectively.

HDAC4 = target: T2, HDAC4 (Homo sapiens, UniProt P56524); assay: HDAC4 enzymatic activity assay (dose-response, Boc-Lys(Tfa)-AMC); details: 1 nM HDAC4, 20 µM Boc-Lys(Tfa)-AMC; triplicate, mean ± SD
T2 construct: made in house
Protocol: as §1

HDAC1 = target: T3, HDAC1 (Homo sapiens, UniProt Q13547); assay: HDAC1 enzymatic activity assay (dose-response, Boc-Lys(Ac)-AMC); details: 40 nM HDAC1, 50 µM Boc-Lys(Ac)-AMC; triplicate, mean ± SD
T3 construct: purchased BPS Bioscience
Protocol: Enzymatic activity assays for compound screening and dose–response analysis were performed as previously described. In brief, compounds were screened at 35 µM using 1 nM HDAC4 and 10 nM HDAC8, respectively. For dose–response curves, serial inhibitor dilutions were incubated with 40 nM HDAC1 (BPS Bioscience, San Diego, CA, USA), 1 nM HDAC4, or 10 nM HDAC8. Reactions were initiated with 20 µM Boc-Lys(Tfa)-AMC (HDAC4/8) or 50 µM Boc-Lys(Ac)-AMC (HDAC1) and terminated with 0.4 mg/mL trypsin ([…]) and 1.7 µM SATFMK (HDAC4/8) or 4.2 µM SAHA (HDAC1). All IC50 determinations were performed in triplicate, and the results are expressed as mean values ± standard deviation (SD). HDAC4 and HDAC8 were produced according to previously reported protocols. HDAC1 was purchased from BPS Bioscience (San Diego, CA, USA). Boc-Lys(Tfa)-AMC and trypsin were purchased from Bachem (Bubendorf, Switzerland) and AppliChem (Darmstadt, Germany), respectively.

T3 sequence (Q13547 whole entry): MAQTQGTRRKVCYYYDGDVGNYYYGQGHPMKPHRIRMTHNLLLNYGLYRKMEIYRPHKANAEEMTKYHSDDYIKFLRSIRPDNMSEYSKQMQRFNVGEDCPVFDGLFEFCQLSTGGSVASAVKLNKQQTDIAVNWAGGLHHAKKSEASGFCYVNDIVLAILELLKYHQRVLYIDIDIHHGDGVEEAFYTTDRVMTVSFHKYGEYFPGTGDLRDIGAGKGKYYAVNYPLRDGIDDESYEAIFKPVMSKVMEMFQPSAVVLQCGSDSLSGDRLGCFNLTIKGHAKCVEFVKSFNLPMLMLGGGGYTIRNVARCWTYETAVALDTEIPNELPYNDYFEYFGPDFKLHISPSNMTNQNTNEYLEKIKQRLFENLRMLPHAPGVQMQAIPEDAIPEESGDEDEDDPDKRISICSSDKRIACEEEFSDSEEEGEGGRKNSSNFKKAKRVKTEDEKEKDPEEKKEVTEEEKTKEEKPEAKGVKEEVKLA
T2 sequence (P56524 whole entry): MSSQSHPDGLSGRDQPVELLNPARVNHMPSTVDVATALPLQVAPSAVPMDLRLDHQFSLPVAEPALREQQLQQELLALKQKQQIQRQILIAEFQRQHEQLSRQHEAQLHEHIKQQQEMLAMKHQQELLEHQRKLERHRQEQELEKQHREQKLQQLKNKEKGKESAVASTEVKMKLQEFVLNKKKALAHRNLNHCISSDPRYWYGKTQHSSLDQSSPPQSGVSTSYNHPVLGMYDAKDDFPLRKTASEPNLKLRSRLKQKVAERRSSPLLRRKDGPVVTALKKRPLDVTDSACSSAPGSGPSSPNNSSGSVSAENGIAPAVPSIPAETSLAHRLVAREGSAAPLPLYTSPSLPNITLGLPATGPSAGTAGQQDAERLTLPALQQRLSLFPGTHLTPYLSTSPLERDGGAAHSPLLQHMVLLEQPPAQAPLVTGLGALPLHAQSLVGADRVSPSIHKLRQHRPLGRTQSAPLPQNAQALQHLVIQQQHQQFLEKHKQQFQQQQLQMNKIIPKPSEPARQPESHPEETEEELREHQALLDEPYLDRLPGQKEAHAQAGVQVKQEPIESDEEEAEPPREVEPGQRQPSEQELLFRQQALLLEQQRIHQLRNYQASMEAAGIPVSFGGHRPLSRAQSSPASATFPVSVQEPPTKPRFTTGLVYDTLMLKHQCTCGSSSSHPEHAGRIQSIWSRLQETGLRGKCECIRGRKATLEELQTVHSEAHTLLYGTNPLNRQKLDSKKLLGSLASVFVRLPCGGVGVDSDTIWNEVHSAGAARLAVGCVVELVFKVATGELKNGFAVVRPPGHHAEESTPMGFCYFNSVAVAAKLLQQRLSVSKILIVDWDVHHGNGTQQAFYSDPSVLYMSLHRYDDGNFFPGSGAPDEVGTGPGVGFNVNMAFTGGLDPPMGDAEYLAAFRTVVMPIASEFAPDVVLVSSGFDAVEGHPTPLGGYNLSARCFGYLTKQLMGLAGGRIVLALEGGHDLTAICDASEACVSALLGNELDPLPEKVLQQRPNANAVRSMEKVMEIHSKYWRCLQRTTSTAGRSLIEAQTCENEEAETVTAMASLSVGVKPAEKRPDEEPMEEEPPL

Row | Structure (SMILES) | IC50 (HDAC8) [µM] | IC50 (HDAC4) [µM] | IC50 (HDAC1) [µM]
1 | O=C(NO)c1cccc(CNCB2C=Cc3ccccc3N2)c1 [Compound 27] | > 35 | > 35 | > 35
2 | O=C(NO)c1cccc(B2Nc3ccccc3N2)c1 [Compound 30] | 0.2 ± 0.02 | 1.35 ± 0.18 | 0.975 ± 0.394
3 | Nc1ccccc1NC(=O)c1cccc(C(=O)OCB2C=Cc3ccccc3N2)c1 [Compound 21] | > 35 | > 35 | > 35
4 | O=C(CCCC(=O)OCB1C=Cc2ccccc2N1)NO [Compound 19] | > 35 | > 35 | > 35
5 | O=C(NO)c1cccc(C(=O)OCB2C=Cc3ccccc3N2)c1 [Compound 23] | 0.44 ± 0.07 | 7.3 ± 1.7 | 1.88 ± 0.11
6 | O=C(CCCCCCNCB1C=Cc2ccccc2N1)NO [Compound 24] | > 35 | > 35 | 9.3 ± 2.3
7 | Nc1ccccc1NC(=O)c1cccc(B2Nc3ccccc3N2)c1 [Compound 31] | > 35 | > 35 | > 35
8 | Nc1cc(F)ccc1NC(=O)c1cccc(B2Nc3ccccc3N2)c1 [Compound 32] | > 35 | > 35 | > 35
9 | Nc1ccccc1NC(=O)CCSCCC(=O)OCB1C=Cc2ccccc2N1 [Compound 22] | > 35 | > 35 | > 35
10 | O=C(NO)c1cccc(NCB2C=Cc3ccccc3N2)c1 [Compound 25] | > 35 | 17 ± 3 | > 35
11 | Nc1cc(F)ccc1NC(=O)CCc1cn(CB2C=Cc3ccccc3N2)nn1 [Compound 14] | > 35 | > 35 | > 35
12 | Nc1ccccc1NC(=O)CCCCCCC(=O)OCB1C=Cc2ccccc2N1 [Compound 17] | 15 ± 3 | 16.5 ± 1 | 8.2 ± 2.5
13 | O=C(CCc1cn(CB2C=Cc3ccccc3N2)nn1)NO [Compound 11] | > 35 | > 35 | > 35
14 | Nc1cc(F)ccc1NC(=O)c1cccc(C(=O)OCB2C=Cc3ccccc3N2)c1 [Compound 20] | > 35 | > 35 | > 35
15 | Nc1cc(F)ccc1NC(=O)CCCCc1cn(CB2C=Cc3ccccc3N2)nn1 [Compound 15] | > 35 | > 35 | > 35
16 | O=C(/C=C/c1ccc(C(=O)NO)cc1)OCB1C=Cc2ccccc2N1 [Compound 18] | 0.52 ± 0.11 | > 35 | 8.2 ± 1.8
17 | O=C(NO)c1ccc(B2Nc3ccccc3N2)cc1 [Compound 35] | > 35 | > 35 | > 35
18 | Nc1cc(F)ccc1NC(=O)c1ccc(CNCB2C=Cc3ccccc3N2)cc1 [Compound 26] | > 35 | > 35 | > 35
19 | Nc1ccccc1NC(=O)CCCc1cn(CB2C=Cc3ccccc3N2)nn1 [Compound 10] | 19 ± 5 | 8.08 ± 1.59 | > 35
20 | Nc1ccccc1NC(=O)CCCCc1cn(CB2C=Cc3ccccc3N2)nn1 [Compound 8] | > 35 | > 35 | > 35
21 | O=C(CCCCc1cn(CB2C=Cc3ccccc3N2)nn1)NO [Compound 12] | 6.2 ± 3.4 | 13.8 ± 4.3 | > 35
22 | O=C(CCCCCCC(=O)OCB1C=Cc2ccccc2N1)NO [Compound 16d] | > 35 | 14.7 ± 1.7 | > 35
23 | O=C(CCCc1cn(CB2C=Cc3ccccc3N2)nn1)NO [Compound 13] | 3.3 ± 1.7 | 23.1 ± 4.9 | > 35
24 | Nc1ccccc1NC(=O)c1cn(CB2C=Cc3ccccc3N2)nn1 [Compound 9] | 20 ± 3 | 16.8 ± 1.6 | > 35
